Results published in PubChem BioAssay (NCI).
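48-hour exposure; five concentrations; linearly interpolated endpoints. At the TGI there is no net growth.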

Legend:
Test in all cases: growth of human tumour cells (NCI), 48 h
SNB-78 CNS = system: SNB-78 CNS
UACC-62 melanoma = system: UACC-62 melanoma
SF-268 CNS = system: SF-268 CNS
XF 498 CNS = system: XF 498 CNS
HCT-15 colon = system: HCT-15 colon
OVCAR-8 ovarian = system: OVCAR-8 ovarian
DMS 273 small cell lung = system: DMS 273 small cell lung
KM20L2 colon = system: KM20L2 colon
EKVX NSCLC = system: EKVX NSCLC
HCT-116 colon = system: HCT-116 colon
HOP-18 NSCLC = system: HOP-18 NSCLC
SK-MEL-28 melanoma = system: SK-MEL-28 melanoma
HCC-2998 colon = system: HCC-2998 colon
SF-295 CNS = system: SF-295 CNS
M14 melanoma = system: M14 melanoma
NCI-H226 lung = system: NCI-H226 lung
RXF 393 renal = system: RXF 393 renal
SF-539 CNS = system: SF-539 CNS
TK-10 renal = system: TK-10 renal
SK-MEL-5 melanoma = system: SK-MEL-5 melanoma
OVCAR-5 ovarian = system: OVCAR-5 ovarian
UACC-257 melanoma = system: UACC-257 melanoma
LOX IMVI melanoma = system: LOX IMVI melanoma
MOLT-4 leukemia = system: MOLT-4 leukemia
NCI-H23 lung = system: NCI-H23 lung
NCI-H522 lung = system: NCI-H522 lung
HOP-62 NSCLC = system: HOP-62 NSCLC
SK-OV-3 ovarian = system: SK-OV-3 ovarian
KM12 colon = system: KM12 colon
SK-MEL-2 melanoma = system: SK-MEL-2 melanoma
NCI-H460 lung = system: NCI-H460 lung
SW-620 colon = system: SW-620 colon
A549 NSCLC = system: A549 NSCLC
HT29 colon = system: HT29 colon
OVCAR-3 ovarian = system: OVCAR-3 ovarian
SN12C renal = system: SN12C renal
786-0 renal = system: 786-0 renal
UO-31 renal = system: UO-31 renal
MALME-3M melanoma = system: MALME-3M melanoma
ACHN renal = system: ACHN renal
LXFL 529 NSCLC = system: LXFL 529 NSCLC
OVCAR-4 ovarian = system: OVCAR-4 ovarian
CAKI-1 renal = system: CAKI-1 renal
RXF-631 renal = system: RXF-631 renal
U251 CNS = system: U251 CNS
K-562 leukemia = system: K-562 leukemia
IGROV1 ovarian = system: IGROV1 ovarian
SNB-75 CNS = system: SNB-75 CNS
RPMI-8226 leukemia = system: RPMI-8226 leukemia
COLO 205 colon = system: COLO 205 colon
CCRF-CEM leukemia = system: CCRF-CEM leukemia
SNB-19 CNS = system: SNB-19 CNS
HL-60(TB) leukemia = system: HL-60(TB) leukemia
SR leukemia = system: SR leukemia
M19-MEL melanoma = system: M19-MEL melanoma
DMS 114 small cell lung = system: DMS 114 small cell lung
DLD-1 colon = system: DLD-1 colon
A498 renal = system: A498 renal
HOP-92 NSCLC = system: HOP-92 NSCLC

SMILES: O=C(O)c1ccccc1NS(=O)(=O)c1ccc([N+](=O)[O-])cc1
- TGI (SNB-78 CNS): > 100 µM
- TGI (UACC-62 melanoma): > 100 µM
- TGI (SF-268 CNS): > 100 µM
- TGI (XF 498 CNS): > 100 µM
- TGI (HCT-15 colon): > 100 µM
- TGI (OVCAR-8 ovarian): > 100 µM
- TGI (DMS 273 small cell lung): > 100 µM
- TGI (KM20L2 colon): > 100 µM
- TGI (EKVX NSCLC): > 100 µM
- TGI (HCT-116 colon): > 100 µM
- TGI (HOP-18 NSCLC): > 100 µM
- TGI (SK-MEL-28 melanoma): > 100 µM
- TGI (HCC-2998 colon): > 100 µM
- TGI (SF-295 CNS): > 100 µM
- TGI (M14 melanoma): > 100 µM
- TGI (NCI-H226 lung): > 100 µM
- TGI (RXF 393 renal): > 100 µM
- TGI (SF-539 CNS): > 100 µM
- TGI (TK-10 renal): > 100 µM
- TGI (SK-MEL-5 melanoma): > 100 µM
- TGI (OVCAR-5 ovarian): > 100 µM
- TGI (UACC-257 melanoma): > 100 µM
- TGI (LOX IMVI melanoma): > 100 µM
- TGI (MOLT-4 leukemia): > 100 µM
- TGI (NCI-H23 lung): > 100 µM
- TGI (NCI-H522 lung): > 100 µM
- TGI (HOP-62 NSCLC): > 100 µM
- TGI (SK-OV-3 ovarian): > 100 µM
- TGI (KM12 colon): > 100 µM
- TGI (SK-MEL-2 melanoma): > 100 µM
- TGI (NCI-H460 lung): > 100 µM
- TGI (SW-620 colon): > 100 µM
- TGI (A549 NSCLC): > 100 µM
- TGI (HT29 colon): > 100 µM
- TGI (OVCAR-3 ovarian): > 100 µM
- TGI (SN12C renal): > 100 µM
- TGI (786-0 renal): > 100 µM
- TGI (UO-31 renal): > 100 µM
- TGI (MALME-3M melanoma): > 100 µM
- TGI (ACHN renal): > 100 µM
- TGI (LXFL 529 NSCLC): > 100 µM
- TGI (OVCAR-4 ovarian): > 100 µM
- TGI (CAKI-1 renal): > 100 µM
- TGI (RXF-631 renal): > 100 µM
- TGI (U251 CNS): > 100 µM
- TGI (K-562 leukemia): > 100 µM
- TGI (IGROV1 ovarian): > 100 µM
- TGI (SNB-75 CNS): > 100 µM
- TGI (RPMI-8226 leukemia): > 100 µM
- TGI (COLO 205 colon): > 100 µM
- TGI (CCRF-CEM leukemia): > 100 µM
- TGI (SNB-19 CNS): > 100 µM

SMILES: COc1ccc(O)c2c(=O)ccccc12
- TGI (SNB-78 CNS): > 100 µM
- TGI (HL-60(TB) leukemia): > 100 µM
- TGI (UACC-62 melanoma): > 100 µM
- TGI (SF-268 CNS): > 100 µM
- TGI (XF 498 CNS): > 100 µM
- TGI (HCT-15 colon): > 100 µM
- TGI (OVCAR-8 ovarian): > 100 µM
- TGI (SR leukemia): > 100 µM
- TGI (DMS 273 small cell lung): > 100 µM
- TGI (M19-MEL melanoma): > 100 µM
- TGI (DMS 114 small cell lung): > 100 µM
- TGI (EKVX NSCLC): > 100 µM
- TGI (HCT-116 colon): > 100 µM
- TGI (SK-MEL-28 melanoma): > 100 µM
- TGI (HCC-2998 colon): > 100 µM
- TGI (SF-295 CNS): > 100 µM
- TGI (M14 melanoma): > 100 µM
- TGI (NCI-H226 lung): > 100 µM
- TGI (RXF 393 renal): > 100 µM
- TGI (SF-539 CNS): > 100 µM
- TGI (TK-10 renal): 60 µM
- TGI (SK-MEL-5 melanoma): > 100 µM
- TGI (OVCAR-5 ovarian): > 100 µM
- TGI (UACC-257 melanoma): > 100 µM
- TGI (LOX IMVI melanoma): > 100 µM
- TGI (MOLT-4 leukemia): > 100 µM
- TGI (NCI-H23 lung): > 100 µM
- TGI (NCI-H522 lung): 91.7 µM
- TGI (HOP-62 NSCLC): > 100 µM
- TGI (SK-OV-3 ovarian): > 100 µM
- TGI (KM12 colon): > 100 µM
- TGI (SK-MEL-2 melanoma): > 100 µM
- TGI (DLD-1 colon): > 100 µM
- TGI (NCI-H460 lung): > 100 µM
- TGI (A498 renal): > 100 µM
- TGI (SW-620 colon): > 100 µM
- TGI (A549 NSCLC): > 100 µM
- TGI (HT29 colon): > 100 µM
- TGI (OVCAR-3 ovarian): > 100 µM
- TGI (HOP-92 NSCLC): > 100 µM
- TGI (SN12C renal): > 100 µM
- TGI (786-0 renal): > 100 µM
- TGI (UO-31 renal): > 100 µM
- TGI (MALME-3M melanoma): > 100 µM
- TGI (ACHN renal): > 100 µM
- TGI (LXFL 529 NSCLC): > 100 µM
- TGI (OVCAR-4 ovarian): > 100 µM
- TGI (RXF-631 renal): > 100 µM
- TGI (U251 CNS): > 100 µM
- TGI (K-562 leukemia): > 100 µM
- TGI (IGROV1 ovarian): > 100 µM
- TGI (SNB-75 CNS): > 100 µM
- TGI (RPMI-8226 leukemia): > 100 µM
- TGI (COLO 205 colon): > 100 µM
- TGI (CCRF-CEM leukemia): > 100 µM
- TGI (SNB-19 CNS): > 100 µM

SMILES: CC1C=CC(O)[C@]2(CO)CC3(CCC12)OCCO3 (some centres not stated)
- TGI (SNB-78 CNS): > 100 µM
- TGI (HL-60(TB) leukemia): > 100 µM
- TGI (UACC-62 melanoma): > 100 µM
- TGI (SF-268 CNS): > 100 µM
- TGI (XF 498 CNS): > 100 µM
- TGI (OVCAR-8 ovarian): > 100 µM
- TGI (SR leukemia): > 100 µM
- TGI (DMS 273 small cell lung): > 100 µM
- TGI (KM20L2 colon): > 100 µM
- TGI (M19-MEL melanoma): > 100 µM
- TGI (DMS 114 small cell lung): > 100 µM
- TGI (EKVX NSCLC): > 100 µM
- TGI (HCT-116 colon): > 100 µM
- TGI (SK-MEL-28 melanoma): > 100 µM
- TGI (HCC-2998 colon): > 100 µM
- TGI (SF-295 CNS): > 100 µM
- TGI (M14 melanoma): > 100 µM
- TGI (NCI-H226 lung): > 100 µM
- TGI (RXF 393 renal): > 100 µM
- TGI (SF-539 CNS): > 100 µM
- TGI (TK-10 renal): > 100 µM
- TGI (SK-MEL-5 melanoma): > 100 µM
- TGI (OVCAR-5 ovarian): > 100 µM
- TGI (UACC-257 melanoma): > 100 µM
- TGI (MOLT-4 leukemia): > 100 µM
- TGI (NCI-H23 lung): > 100 µM
- TGI (NCI-H522 lung): > 100 µM
- TGI (HOP-62 NSCLC): > 100 µM
- TGI (SK-OV-3 ovarian): > 100 µM
- TGI (KM12 colon): > 100 µM
- TGI (SK-MEL-2 melanoma): > 100 µM
- TGI (DLD-1 colon): > 100 µM
- TGI (NCI-H460 lung): > 100 µM
- TGI (A498 renal): > 100 µM
- TGI (SW-620 colon): > 100 µM
- TGI (A549 NSCLC): > 100 µM
- TGI (HT29 colon): > 100 µM
- TGI (OVCAR-3 ovarian): > 100 µM
- TGI (HOP-92 NSCLC): > 100 µM
- TGI (SN12C renal): > 100 µM
- TGI (786-0 renal): > 100 µM
- TGI (UO-31 renal): > 100 µM
- TGI (MALME-3M melanoma): > 100 µM
- TGI (ACHN renal): > 100 µM
- TGI (LXFL 529 NSCLC): > 100 µM
- TGI (OVCAR-4 ovarian): > 100 µM
- TGI (CAKI-1 renal): > 100 µM
- TGI (RXF-631 renal): > 100 µM
- TGI (U251 CNS): > 100 µM
- TGI (K-562 leukemia): > 100 µM
- TGI (IGROV1 ovarian): > 100 µM
- TGI (SNB-75 CNS): > 100 µM
- TGI (CCRF-CEM leukemia): > 100 µM
- TGI (SNB-19 CNS): > 100 µM
